Test results from ChEMBL document CHEMBL1759948, “Use of the NEO strategy (Nucleophilic addition/Epoxide Opening) for the synthesis of a new C-galactoside ester analogue of KRN 7000” (2011).

Legend:
Assay type in all cases: functional
Mus musculus [1] = organism: Mus musculus; assay: Induction of IL-4 production in BALB/c mouse after 6 hrs by ELISA
Mus musculus [2] = organism: Mus musculus; assay: Induction of IFN-gamma production in BALB/c mouse after 6 hrs by ELISA
Mus musculus [3] = organism: Mus musculus; assay: Ratio of induction of IFN-gamma production to induction of IL-4 production in BALB/c mouse after 6 hrs

Compound | Activity (Mus musculus [1]) [pg/mL] | Activity (Mus musculus [2]) [pg/mL] | Ratio (Mus musculus [3])
CCCCCCCCCCCCCCCCCCCCCCCCCC(=O)O[C@H](CCCCCCCCCCCCCC)[C@@H](O)[C@@H](O)CC[C@H]1O[C@H](CO)[C@H](O)[C@H](O)[C@H]1O | 83 | 90 | 1.37
CCCCCCCCCCCCCCCCCCCCCCCCCC(=O)N[C@@H](CO[C@H]1O[C@H](CO)[C@H](O)[C@H](O)[C@H]1O)[C@H](O)[C@H](O)CCCCCCCCCCCCCC [RGI-7000] | 1450 | 12145 | 8.35
